# Measurements reported in ChEMBL document CHEMBL1136260, “[18F]FMDAA1106 and [18F]FEDAA1106: two positron-emitter labeled ligands for peripheral benzodiazepine receptor (PBR)” (Bioorg Med Chem Lett, 2003).
# pIC50, pKi: −log10 of the molar value.
# Assays:
# [1] = Partition coefficient (logP); assay type: physicochemical; details: octanol/water
# [2] = target: GABA-A receptor; anion channel; assay: In vitro displacement of [11C]Flumazenil from (CBR) central GABA-A benzodiazepine receptor of rat brain
# Translocator protein = Translocator protein (Rattus norvegicus, UniProt P16257); assay: In vitro binding affinity for PBR (peripheral benzodiazepine receptor) in rat brain; assay type: tissue-based
# Translocator protein, sequence (P16257 whole entry, looked up): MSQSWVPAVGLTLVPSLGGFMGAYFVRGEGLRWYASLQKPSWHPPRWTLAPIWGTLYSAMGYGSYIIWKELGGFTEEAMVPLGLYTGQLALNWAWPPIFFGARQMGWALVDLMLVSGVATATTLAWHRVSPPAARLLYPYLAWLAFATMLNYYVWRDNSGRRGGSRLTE
compound,measurement,setting,value
COc1ccc(OCF)c(CN(C(C)=O)c2cc(F)ccc2Oc2ccccc2)c1,logP,[1],3.7
same,pIC50,[2],< 5.00
COc1ccc(OC)c(CN(C(C)=O)c2cc(F)ccc2Oc2ccccc2)c1,logP,[1],3.65
same,pKi,Translocator protein,10.37
same,pIC50,[2],< 5.00
COc1ccc(OCCF)c(CN(C(C)=O)c2cc(F)ccc2Oc2ccccc2)c1,logP,[1],3.81
same,pIC50,[2],< 5.00
CC[C@@H](C)N(C)C(=O)c1cc2ccccc2c(-c2ccccc2Cl)n1 [PK-11195],pIC50,[2],< 5.00
